Holding throughout (format): functional, cell-based
Test [1] is described as follows: Cytotoxicity against human C4-2B cells after 72 hrs by MTT assay. To be noted: LNCaP C4-2B.
Another test has as its system LNCaP. The test can be described thus: Cytotoxicity against human LNCAP cells after 72 hrs by MTT assay. On the technique in general: Formazan colour is commonly taken as a measure of viable cells.
In the next test the test system is CWR22R. The test can be described thus: Cytotoxicity against human 22Rv1 cells after 72 hrs by MTT assay. To be noted: 22Rv1, 72 h.
Test [2] deals with PC-3. The test can be described thus: Cytotoxicity against human PC3 cells after 72 hrs by MTT assay. The conditions noted are these: for pIC50: Homo sapiens, PC-3, 72 h, read-out: IC50.
Test [3] can be described thus: Cytotoxicity against human MDA PCa 2b cells after 72 hrs by MTT assay.
Test [4] relates to PC-3. As to the kind of experiment: Cytotoxicity against human PC3 cells at 150 uM after 72 hrs by MTT assay.

pIC50: −log10 of the molar value. Calls of active or inactive are those of the source. No cut-off for these calls is given here.

As to `COc1cc(/C=C(\C(=O)/C=C/C2=C(C)CCCC2(C)C)C(=O)/C=C/c2cc(OC)c(O)c(OC)c2)cc(OC)c1O`, the pIC50 (commonly −log10 of the IC50, conventionally taken in molar units) in test [1] was 5.07; in the test on LNCaP, 5.06; with CWR22R, 4.75; in the test with PC-3 [2], 4.90; in test [3] it was 4.82.
For `CC1=C(/C=C/C(=O)/C(=C\c2ccc(O)cc2)C(=O)/C=C/c2ccc(O)cc2)C(C)(C)CCC1`, the pIC50 in test [1] is 5.40; in the test on LNCaP it was 5.35; in the test on CWR22R it was 5.33; in the test with PC-3 [2], 5.17; in test [3] it was 5.33.
In the case of `COc1cc(/C=C/C(O)=C/C(=O)/C=C/C2=C(C)CCCC2(C)C)ccc1O`, the pIC50 in test [1] was 4.35; with LNCaP, 4.69; with CWR22R, 4.97; with PC-3 [2] it was 4.80.
Take `CCOc1ccc(/C=C(\C(=O)/C=C/C2=C(C)CCCC2(C)C)C(=O)/C=C/c2ccc(OCC)c(OCC)c2)cc1OCC`: the pIC50 in test [1] is 5.35; in the test on LNCaP, 4.83; in the test with CWR22R, 5.03; with PC-3 [2], 4.85; in test [3], 5.17.
For the molecule `COc1cc(/C=C/C(O)=C/C(=O)/C=C/C2=C(C)CCCC2(C)C)cc(OC)c1O`, the negative-log IC50 (pIC50) was 5.01 in test [1], 5.21 with LNCaP, 4.91 with CWR22R and 4.57 in the test on PC-3 [2].
With `CC(=O)/C=C/C1=C(C)CCCC1(C)C` [BETA-IONONE], the result with PC-3 [4] was inactive. The molecule also showed a negative-log IC50 (pIC50) in the test with LNCaP of 3.82. Further, the IC50 entry in the test with PC-3 [2] (pc-3) is listed as “Not Active”.
As for `COc1cc(/C=C/C(=O)CC(=O)/C=C/c2ccc(O)c(OC)c2)ccc1O` [CURCUMIN], the pIC50 is 5.21 in test [1], 5.07 in the test with LNCaP, 4.74 in the test on CWR22R and 4.77 in the test with PC-3 [2].
As to `COc1ccc(/C=C/C(O)=C/C(=O)/C=C/C2=C(C)CCCC2(C)C)cc1O`, the pIC50 in test [1] was 4.64; in the test on LNCaP, 4.59; in the test on PC-3 [2], 4.42.
`COc1ccc(/C=C/C(O)=C/C(=O)/C=C/C2=C(C)CCCC2(C)C)cn1`: the figures for the negative logarithm of the IC50 (pIC50) with LNCaP and in the test on PC-3 [2] were 4.60 and 4.28, respectively.
On to `COc1cc(/C=C/C(O)=C/C(=O)/C=C/C2=C(C)CCCC2(C)C)cc(OC)c1OC`, for which the pIC50 was 4.92 in test [1], 4.67 with LNCaP, 4.77 with CWR22R and less than 4.30 in the test with PC-3 [2].
Consider `COc1cc(/C=C/C(=O)/C(=C/c2ccc3ccccc3n2)C(=O)/C=C/C2=C(C)CCCC2(C)C)ccc1O`, for which the pIC50 in test [1] was 5.28; in the test with LNCaP, 5.07; with CWR22R, 5.29; with PC-3 [2], 4.82.
In the case of `CCn1c2ccccc2c2cc(/C=C(\C(=O)/C=C/C3=C(C)CCCC3(C)C)C(=O)/C=C/c3ccc(O)c(OC)c3)ccc21`, the negative-log IC50 (pIC50) in test [1] is 5.64; in the test with LNCaP it was 5.64; with CWR22R, 5.62; in the test on PC-3 [2] it was 5.15; in test [3] it was 5.09.

For the origin of these results see ChEMBL document CHEMBL1153534, “Design and synthesis of androgen receptor antagonists with bulky side chains for overcoming antiandrogen resistance” (J Med Chem, 2009).
